Assays:
GSK-3 = assay type: biochemical; conditions: read-out: IC50 GSK-3 inhibition
[1] = system: Tau phosphorylation in primary cultured cerebellar neurones; assay: cells; assay type: cell-based; conditions: Rattus norvegicus, 16 h, read-out: IC50 Tau phosphorylation inhibition in neurones measured by Tau-1 immunoreactivity

Row | SMILES | IC50 (GSK-3) | melting point | IC50 [1]
1 | O=C(CCl)c1scc(Br)c1Br [Compound 15, 2-Chloro-1-(3,4-dibromo-thiophen-2-yl)-ethanone] | 500 nM | 86 to 88 °C | 
2 | Cc1ccsc1C(=O)CCl [Compound 18, 2-chloro-1-(3-methyl-thiophen-2-yl)-ethanone] | 75000 nM |  | 
3 | O=C(CCl)c1cc(Cl)c(Cl)s1 [Compound 2, 2-Chloro-1-(4,5-dichloro-thiophen-2-yl)-ethanone] | 2500 nM |  | 
4 | O=C(CCl)c1cscc1Cl [Compound 4, 2-Chloro-1-(4-chloro-thiophen-3-yl)-ethanone] | 25000 nM |  | 
5 | O=C(c1ccc(I)cc1)C(Br)Br [Compound 45, 2,2 -Dibromo-1-(4-iodo-phenyl)-ethanone] | 2000 nM | 77 to 78 °C | 
6 | Nc1c(Br)cc(C(=O)CBr)cc1Br [Compound 47, 1-(4-Amino-3,5-dibromo-phenyl)-2-bromo-ethanone] | 3000 nM | 146 to 147 °C | 
7 | O=C(CCl)c1ccc(Br)s1 [Compound 8, 1-(5-Bromo-thiophen-2-yl)-2-chloro-ethanone] | 10000 nM |  | 
8 | O=C(CCl)c1csc(C(=O)CCl)c1 [Compound 9, 2-Chloro-1-[4-(2-chloro-acetyl)-thiophen-2-yl]-ethanone] | 1500 nM | 154 to 155 °C | 
9 | N#Cc1ccc(C(=O)C(Br)Br)cc1 [Compound 39, 4-(2,2-Dibromo-acetyl)-benzonitrile] | 1500 nM |  | 
10 | O=C(CCl)c1ccc(Cl)cc1 [Compound 24, 2-Chloro-1-(4-chloro-phenyl)-ethanone] | 2500 nM |  | 
11 | CC(=O)c1csc(C(=O)CCl)c1 [Compound 20, 1-(4-Acetyl-thiophen-2-yl)-2-chloro-ethanone] | 8000 nM | 118 to 119 °C | 
12 | O=C(CBr)c1ccc(N2CCOCC2)cc1 [Compound 42, 2-Bromo-1-(4-morpholin-4-yl-phenyl)-ethanone] | 6000 nM |  | 
13 | N#Cc1cccc(C(=O)C(Br)Br)c1 [Compound 44, 3-(2,2-Dibromo-acetyl)-benzonitrile] | 1000 nM |  | 
14 | O=C(CBr)c1ccc(C(F)(F)F)cc1 [Compound 40, 2-Bromo-1-(4-trifluoromethyl-phenyl)-ethanone] | 5000 nM |  | 
15 | Cc1c(C(=O)CCl)csc1C(=O)CCl [Compound 16, 2-Chloro-1-[5-(2-chloro-acetyl)-4-methyl-thiophen-3-yl]-ethanone] | 2500 nM | 155 to 156 °C | 
16 | O=C(CBr)c1ccc(Br)s1 [Compound 23, 2-Bromo-1-(5-bromo-thiophen-2-yl)-ethanone] | 1000 nM |  | 

Row | SMILES | IC50 (GSK-3) | melting point | IC50 [1]
17 | O=C(CCl)c1c(Br)sc(Cl)c1Cl [Compound 1, 1-(2-Bromo-4,5-dichloro-thiophen-3-yl)-2-chloro-ethanone] | 2000 nM |  | 30000 nM
18 | O=C(CBr)c1ccccc1 [Compound 30, 2-Bromo-1-phenyl-ethanone] | 5000 nM |  | 
19 | O=C(CBr)c1ccc(Br)cc1 [Compound 28, 2-Bromo-1-(4-bromo-phenyl)-ethanone] | 500 nM |  | 
20 | O=C(CBr)c1scc(Br)c1Br [Compound 21, 2-Bromo-1-(3,4-dibromo-thiophen-2-yl)-ethanone] | 1000 nM |  | 
21 | O=C(CCl)c1c(Br)sc(Br)c1Br [Compound 5, 2-Chloro-1-(2 4,5-tribromo-thiophen-3-yl) -ethanone] | 1000 nM |  | 30000 nM
22 | O=C(CBr)c1cc(Br)c(Br)s1 [Compound 22, 2-Bromo-1-(4,5-dibromo-thiophen-2-yl)-ethanone] | 1000 nM |  | 
23 | O=C(CCl)c1cc(Br)cs1 [Compound 3, 1-(4-Bromo-thiophen-2-yl)-2-chloro-ethanone] | 3000 nM |  | 
24 | O=C(CCl)c1cc(Cl)sc1Cl [Compound 6, 2-Chloro-1-(2,5-dichloro-thiophen-3-yl)-ethanone] | 5000 nM | 43 to 44 °C | 
25 | O=C(CCl)c1cc(Br)c(Br)s1 [Compound 14, 2-Chloro-1-(4,5-dibromo-thiophen-2-yl)-ethanone] | 1000 nM |  | 
26 | CC(=O)c1ccc(C(=O)CCl)s1 [Compound 19, 1-(5-Acetyl-thiophen-2-yl)-2-chloro-ethanone] | 50000 nM |  | 
27 | O=C(CCl)c1cccs1 [Compound 10, 2-Chloro-1-thiophen-2-yl-ethanone] | 50000 nM |  | 
28 | Cc1sc(C(=O)CCl)cc1C(=O)CCl [Compound 11, 2-Chloro-1-[4-(2-chloro-acetyl)-5-methyl-thiophen-2-yl]-ethanone] | 5000 nM |  | 
29 | O=C(c1ccc(C(F)(F)F)cc1)C(Br)Br [Compound 41, 2,2-Dibromo-1-(4-trifluoromethyl-phenyl)-ethanone] | 5000 nM | 40 to 41 °C | 
30 | O=C(CBr)c1ccc(-c2ccccc2)cc1 [Compound 33, 1-Biphenyl-4-yl-2-bromo-ethanone] | 2500 nM |  | 
31 | O=C(CCl)c1ccccc1 [Compound 25, 2-Chloro-1-phenyl-ethanone] | 50000 nM |  | 
32 | O=C(CBr)c1ccc(Br)c(Br)c1 [Compound 27, 2-Bromo-1-(3,4-dibromo-phenyl)-ethanone] | 750 nM | 60 to 61 °C | 

Reference: patent publication US6747057B2 (priority 2001, dated 2004)
